Earlier results in patent publication US20160228670A1, “SYSTEM FOR NITRIC OXIDE INHALATION” (ADVANCED […] (AIT) LTD., priority 2013, published 2016).
Where two headings read alike, the source gives them in different places.

For `[N]=O` [NO, nitric oxide], the “t1/2 of NO to NO2” value (NO concentration in air 1 ppm) is listed as 3500 min, the “t1/2 of NO to NO2” value (NO concentration in air 10 ppm) is listed as 350 min and the “t1/2 of NO to NO2” value (NO concentration in air 100 ppm) is listed as 35 min. The “t1/2 of NO to NO2” value (NO concentration in air 1,000 ppm) was 3.5 min, the “t1/2 of NO to NO2” value (NO concentration in air 10,000 ppm) was 0.35 min and the “t1/2 of NO to NO2” value (NO concentration in air 20,000 ppm) was 0.175 min.
